Experimental data reported in patent US10080739B2, “Aryl imidazoles and their use as anti-cancer agents” (Aptose Biosciences Inc., priority 2003, dated 2018).

How the values were obtained:
[1] = system: human colon carcinoma cells (HT-29); assay: XTT cell proliferation assay, HT-29 cells, 48 h; format: cell-based; settings: read-out: % Survival
Method: Selected compounds of Formula I were tested for anti-cancer activity in vitro using a human colon carcinoma cells (HT-29) and human non-small cell lung cancer cells (H460). The cells were maintained in α-MEM medium (Wisent, St-Bruno, Qc) supplemented with 10% FBS, and grown at 37° C. in an atmosphere of 5% CO2. Cells were transferred onto 150 mm tissue culture plates and grown until sub-confluency (70-80%) prior to their use.
The anti-cancer activity in vitro was evaluated by a cell proliferation assay based on the ability of live cells to reduce the tetrazolium salt XTT to orange coloured compounds of formazan (XTT cell proliferation kit II, Roche Applied Science, Montreal, QC).
Approximately 4×10^3 colon cancer cells (HT-29) or 2×10^3 non-small cell lung cancer cells (NCI-H460) in 100 μl of complete culture medium were plated onto 96-well microtiter plates and incubated overnight at 37° C. The medium was then removed by inverting the plate and patting on a sterile absorbent cloth. Fifty μl of medium containing the test compound at either 25 or 100 μM, were added to the wells containing cells and incubated at 37° C. in an atmosphere of 5% CO2 for 48 h. Following incubation, 25 μl of an XTT reaction mixture (XTT at a final concentration of 0.3 mg/ml) were added to each well and the plates were incubated for a further 4 h. The absorbance of each sample was then determined at a wavelength of 490 nm/650 nm as reference. Each compound was tested in duplicate and the results are reported as averages.

leukemia cell lines = assay: NCI/DTP screen, leukemia cell lines; format: cell-based, human
Method: The twenty-three compounds of Formula I shown below were evaluated for their antiproliferative effects in a panel of 60 human cancer cell lines as part of the in vitro anticancer screening services provided by the DTP (Developmental Therapeutics Program) of the US National Cancer Institute (NCI) U.S. National Cancer Institute (NCI) of the National Institutes of Health (NIH) in […], Md.
The NCI conducts a standard 48/72 hour 60 cell line assay and an in vitro time course assay as described in Alley et al. (Cancer Res (1988) 48:589). In the standard 60 cell line assay, a minimum of 5 concentrations of the test compound are tested at 10-fold dilutions against 60 cell lines and cell growth is assayed at 48 and 72 hours using a sulphorhodamine B assay. For the time course analysis, tumour cells are treated with the test compound at various time points, then washed and grown in medium free of the test compound until the end of the experiment at 144 hrs. This assay employs 20% FBS to better approximate the minimum c×t (concentrations and times) test compound exposure conditions that are required to achieve activity in vivo. Cell growth is quantified by an MTT assay (similar to the XTT assay described above) and the concentration of the test compound required for growth inhibition is determined. […]

ASK1 = molecular target: T1, ASK1 (Homo sapiens, UniProt Q99683); assay: kinase profiler, ASK1; format: biochemical; settings: 10 μM compound, 100 μM ATP, mean of % control
T1 construct: purchased Upstate Biotechnologies (kinase profiler service)
Method: (§1) Compound 45 was tested for its ability to function as a kinase inhibitor using the kinase profiler service from Upstate Biotechnologies. The general protocol employed is as follows: recombinant kinases were incubated with specific substrates, 10 mM MgAcetate, and [γ-^33P-ATP]. The reaction was initiated by the addition of MgATP mix. After incubation at room temperature for 40 minutes, the reaction was stopped by the addition of 5 μl of a 3% phosphoric acid solution. 10 μl of the reaction was then spotted on to a P30 filtermat and washed 3 times for 5 min. in 75 mM phosphoric acid and once in methanol prior to drying and scintillation counting. Each reaction was performed in duplicate with 100 μM ATP −/+10 μM compound 45. Results are presented in Table IV and are expressed as the mean of % control (no compound). PI 3-kinase-γ (PI3K-γ) activity was determined with the PIProfiler™ assay, which measures the binding of the GRP1 pleckstrin homology (PH) domain to PIP3, the product of PI3K acting on its physiological substrate PIP2.

CDK2/cyclinE = molecular target: T2, CDK2/cyclinE (Homo sapiens, UniProt P24941); assay: kinase profiler, CDK2/cyclinE; format: biochemical; settings: 10 μM compound, 100 μM ATP, mean of % control
T2 construct: purchased Upstate Biotechnologies (kinase profiler service)
Method: as §1

CDK6/cyclinD3 = molecular target: T3, CDK6/cyclinD3 (Homo sapiens, UniProt Q00534); assay: kinase profiler, CDK6/cyclinD3; format: biochemical; settings: 10 μM compound, 100 μM ATP, mean of % control
T3 construct: purchased Upstate Biotechnologies (kinase profiler service)
Method: as §1

FGFR3 = molecular target: T4, FGFR3 (Homo sapiens, UniProt P22607); assay: kinase profiler, FGFR3; format: biochemical; settings: 10 μM compound, 100 μM ATP, mean of % control
T4 construct: purchased Upstate Biotechnologies (kinase profiler service)
Method: as §1

Fyn = molecular target: T5, Fyn (Homo sapiens, UniProt P06241); assay: kinase profiler, Fyn; format: biochemical; settings: 10 μM compound, 100 μM ATP, mean of % control
T5 construct: purchased Upstate Biotechnologies (kinase profiler service)
Method: as §1

GSK3α = molecular target: T6, GSK3α (Homo sapiens, UniProt P49840); assay: kinase profiler, GSK3α; format: biochemical; settings: 10 μM compound, 100 μM ATP, mean of % control
T6 construct: purchased Upstate Biotechnologies (kinase profiler service)
Method: as §1

IKKβ = molecular target: T7, IKKβ (Homo sapiens, UniProt O14920); assay: kinase profiler, IKKβ; format: biochemical; settings: 10 μM compound, 100 μM ATP, mean of % control
T7 construct: purchased Upstate Biotechnologies (kinase profiler service)
Method: as §1

MKK4 = molecular target: T8, MKK4 (Mus musculus, UniProt P47809); assay: kinase profiler, MKK4; format: biochemical, human; settings: 10 μM compound, 100 μM ATP, mean of % control
T8 construct: purchased Upstate Biotechnologies (kinase profiler service)
Method: as §1

PI3K-β = molecular target: T9, PI3K-β (Homo sapiens, UniProt P42338); assay: kinase profiler, PI3K-β; format: biochemical; settings: 10 μM compound, mean of % control
T9 construct: purchased Upstate Biotechnologies (kinase profiler service)

PKBα = molecular target: T10, PKBα (Homo sapiens, UniProt P31749); assay: kinase profiler, PKBα; format: biochemical; settings: 10 μM compound, 100 μM ATP, mean of % control
T10 construct: purchased Upstate Biotechnologies (kinase profiler service)
Method: as §1

PKD2 = molecular target: T11, PKD2 (Homo sapiens, UniProt Q9BZL6); assay: kinase profiler, PKD2; format: biochemical; settings: 10 μM compound, 100 μM ATP, mean of % control
T11 construct: purchased Upstate Biotechnologies (kinase profiler service)
Method: as §1

RAF = molecular target: T12, RAF (Homo sapiens, UniProt P04049); assay: kinase profiler, RAF; format: biochemical; settings: 10 μM compound, 100 μM ATP, mean of % control
T12 construct: purchased Upstate Biotechnologies (kinase profiler service)
Method: as §1

Ret = molecular target: T13, Ret (Homo sapiens, UniProt P07949); assay: kinase profiler, Ret; format: biochemical; settings: 10 μM compound, 100 μM ATP, mean of % control
T13 construct: purchased Upstate Biotechnologies (kinase profiler service)
Method: as §1

ROCK-II = molecular target: T14, ROCK-II (Homo sapiens, UniProt O75116); assay: kinase profiler, ROCK-II; format: biochemical; settings: 10 μM compound, 100 μM ATP, mean of % control
T14 construct: purchased Upstate Biotechnologies (kinase profiler service)
Method: as §1

Rsk1 = molecular target: T15, Rsk1 (Homo sapiens, UniProt Q15418); assay: kinase profiler, Rsk1; format: biochemical; settings: 10 μM compound, 100 μM ATP, mean of % control
T15 construct: purchased Upstate Biotechnologies (kinase profiler service)
Method: as §1

TAK1 = molecular target: T16, TAK1 (Homo sapiens, UniProt O43318); assay: kinase profiler, TAK1; format: biochemical; settings: 10 μM compound, 100 μM ATP, mean of % control
T16 construct: purchased Upstate Biotechnologies (kinase profiler service)
Method: as §1

Tie2 = molecular target: T17, Tie2 (Homo sapiens, UniProt Q02763); assay: kinase profiler, Tie2; format: biochemical; settings: 10 μM compound, 100 μM ATP, mean of % control
T17 construct: purchased Upstate Biotechnologies (kinase profiler service)
Method: as §1

TrkA = molecular target: T18, TrkA (Homo sapiens, UniProt P04629); assay: kinase profiler, TrkA; format: biochemical; settings: 10 μM compound, 100 μM ATP, mean of % control
T18 construct: purchased Upstate Biotechnologies (kinase profiler service)
Method: as §1

T11 sequence (Q9BZL6 whole entry): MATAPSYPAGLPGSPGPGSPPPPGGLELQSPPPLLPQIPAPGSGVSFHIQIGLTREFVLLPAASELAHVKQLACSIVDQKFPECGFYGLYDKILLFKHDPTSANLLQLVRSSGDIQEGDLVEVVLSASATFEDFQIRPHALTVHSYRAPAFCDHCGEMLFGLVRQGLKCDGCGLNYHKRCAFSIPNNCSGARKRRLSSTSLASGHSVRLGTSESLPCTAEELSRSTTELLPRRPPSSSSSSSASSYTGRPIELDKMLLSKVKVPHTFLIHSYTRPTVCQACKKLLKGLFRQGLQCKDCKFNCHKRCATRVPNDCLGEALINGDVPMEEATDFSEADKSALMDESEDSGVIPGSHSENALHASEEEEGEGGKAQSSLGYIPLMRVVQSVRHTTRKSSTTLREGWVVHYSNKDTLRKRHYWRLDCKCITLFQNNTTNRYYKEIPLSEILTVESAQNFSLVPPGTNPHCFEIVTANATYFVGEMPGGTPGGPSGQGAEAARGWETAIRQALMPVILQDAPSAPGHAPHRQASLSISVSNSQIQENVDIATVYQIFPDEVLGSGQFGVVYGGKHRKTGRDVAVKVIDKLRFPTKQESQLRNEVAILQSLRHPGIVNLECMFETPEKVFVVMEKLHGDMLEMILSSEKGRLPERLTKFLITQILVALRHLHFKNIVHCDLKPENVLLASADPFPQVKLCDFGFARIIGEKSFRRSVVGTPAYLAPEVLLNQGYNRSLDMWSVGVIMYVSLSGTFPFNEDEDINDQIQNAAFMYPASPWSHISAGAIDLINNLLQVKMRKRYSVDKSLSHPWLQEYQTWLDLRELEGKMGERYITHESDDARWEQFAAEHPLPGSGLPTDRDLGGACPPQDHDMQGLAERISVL
T6 sequence (P49840 whole entry): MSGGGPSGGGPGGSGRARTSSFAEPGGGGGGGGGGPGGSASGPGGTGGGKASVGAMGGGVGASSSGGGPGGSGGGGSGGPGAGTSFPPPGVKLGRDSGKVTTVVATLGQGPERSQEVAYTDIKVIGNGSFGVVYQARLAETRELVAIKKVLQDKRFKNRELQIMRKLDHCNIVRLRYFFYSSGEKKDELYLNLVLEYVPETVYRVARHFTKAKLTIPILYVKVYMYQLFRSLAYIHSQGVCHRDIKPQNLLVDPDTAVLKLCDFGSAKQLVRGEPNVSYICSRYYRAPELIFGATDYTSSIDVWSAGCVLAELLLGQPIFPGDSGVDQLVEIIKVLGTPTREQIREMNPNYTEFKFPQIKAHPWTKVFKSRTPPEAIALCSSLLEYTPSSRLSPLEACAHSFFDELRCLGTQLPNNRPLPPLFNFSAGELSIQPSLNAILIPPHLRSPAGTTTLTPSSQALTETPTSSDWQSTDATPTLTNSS
T15 sequence (Q15418 whole entry): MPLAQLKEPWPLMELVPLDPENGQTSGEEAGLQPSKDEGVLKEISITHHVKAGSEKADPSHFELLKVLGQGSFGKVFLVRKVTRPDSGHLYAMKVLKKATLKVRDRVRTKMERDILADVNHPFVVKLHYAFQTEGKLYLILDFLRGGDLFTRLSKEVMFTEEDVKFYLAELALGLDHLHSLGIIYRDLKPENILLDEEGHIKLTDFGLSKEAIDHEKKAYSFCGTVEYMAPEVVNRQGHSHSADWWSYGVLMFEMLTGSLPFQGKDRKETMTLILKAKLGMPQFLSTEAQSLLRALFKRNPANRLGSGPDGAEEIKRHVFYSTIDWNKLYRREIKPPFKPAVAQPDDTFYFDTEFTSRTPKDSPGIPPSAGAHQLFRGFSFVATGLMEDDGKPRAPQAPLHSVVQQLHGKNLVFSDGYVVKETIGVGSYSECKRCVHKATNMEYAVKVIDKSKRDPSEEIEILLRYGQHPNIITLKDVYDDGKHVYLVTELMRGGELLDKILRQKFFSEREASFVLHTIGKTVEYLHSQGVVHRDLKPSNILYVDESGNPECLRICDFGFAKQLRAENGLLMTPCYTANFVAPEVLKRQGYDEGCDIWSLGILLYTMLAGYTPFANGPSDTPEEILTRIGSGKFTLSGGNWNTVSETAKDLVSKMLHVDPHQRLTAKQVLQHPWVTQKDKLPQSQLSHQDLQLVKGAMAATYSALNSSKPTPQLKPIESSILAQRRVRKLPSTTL
T7 sequence (O14920 whole entry): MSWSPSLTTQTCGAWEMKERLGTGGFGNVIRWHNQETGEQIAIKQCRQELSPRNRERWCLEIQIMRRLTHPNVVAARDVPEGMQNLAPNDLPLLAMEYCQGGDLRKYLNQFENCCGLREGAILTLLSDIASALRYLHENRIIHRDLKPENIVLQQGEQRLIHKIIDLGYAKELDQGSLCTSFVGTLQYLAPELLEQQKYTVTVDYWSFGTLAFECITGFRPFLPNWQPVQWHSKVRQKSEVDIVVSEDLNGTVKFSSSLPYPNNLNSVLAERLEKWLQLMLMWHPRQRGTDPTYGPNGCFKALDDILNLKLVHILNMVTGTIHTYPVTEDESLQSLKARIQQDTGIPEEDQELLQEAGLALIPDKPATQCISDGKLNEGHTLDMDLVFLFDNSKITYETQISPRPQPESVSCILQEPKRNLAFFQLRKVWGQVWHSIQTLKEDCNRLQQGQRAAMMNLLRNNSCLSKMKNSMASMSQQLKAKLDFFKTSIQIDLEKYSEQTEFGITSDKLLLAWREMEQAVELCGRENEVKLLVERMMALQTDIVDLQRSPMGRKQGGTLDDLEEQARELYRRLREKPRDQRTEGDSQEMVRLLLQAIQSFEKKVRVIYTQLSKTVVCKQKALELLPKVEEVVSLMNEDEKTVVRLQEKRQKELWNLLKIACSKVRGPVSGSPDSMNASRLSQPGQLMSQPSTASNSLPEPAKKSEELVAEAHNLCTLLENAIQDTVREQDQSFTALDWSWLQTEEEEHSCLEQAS
T12 sequence (P04049 whole entry): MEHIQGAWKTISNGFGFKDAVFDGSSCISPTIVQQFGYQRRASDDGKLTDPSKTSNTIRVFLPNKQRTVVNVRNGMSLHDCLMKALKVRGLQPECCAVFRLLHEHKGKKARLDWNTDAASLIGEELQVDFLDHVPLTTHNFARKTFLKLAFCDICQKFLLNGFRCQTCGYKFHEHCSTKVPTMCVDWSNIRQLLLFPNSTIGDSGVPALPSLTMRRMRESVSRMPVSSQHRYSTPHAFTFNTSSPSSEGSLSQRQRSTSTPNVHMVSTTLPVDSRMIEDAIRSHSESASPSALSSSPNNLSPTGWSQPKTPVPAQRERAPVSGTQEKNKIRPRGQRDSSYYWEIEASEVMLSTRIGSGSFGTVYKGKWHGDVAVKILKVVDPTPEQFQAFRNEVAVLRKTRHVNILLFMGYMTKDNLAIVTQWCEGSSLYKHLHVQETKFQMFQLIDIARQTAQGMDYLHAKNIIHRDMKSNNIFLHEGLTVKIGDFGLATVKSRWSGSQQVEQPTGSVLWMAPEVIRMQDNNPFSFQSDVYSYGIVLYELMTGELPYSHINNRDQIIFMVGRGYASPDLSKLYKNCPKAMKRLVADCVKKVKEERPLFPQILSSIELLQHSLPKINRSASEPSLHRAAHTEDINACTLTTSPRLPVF
T14 sequence (O75116 whole entry): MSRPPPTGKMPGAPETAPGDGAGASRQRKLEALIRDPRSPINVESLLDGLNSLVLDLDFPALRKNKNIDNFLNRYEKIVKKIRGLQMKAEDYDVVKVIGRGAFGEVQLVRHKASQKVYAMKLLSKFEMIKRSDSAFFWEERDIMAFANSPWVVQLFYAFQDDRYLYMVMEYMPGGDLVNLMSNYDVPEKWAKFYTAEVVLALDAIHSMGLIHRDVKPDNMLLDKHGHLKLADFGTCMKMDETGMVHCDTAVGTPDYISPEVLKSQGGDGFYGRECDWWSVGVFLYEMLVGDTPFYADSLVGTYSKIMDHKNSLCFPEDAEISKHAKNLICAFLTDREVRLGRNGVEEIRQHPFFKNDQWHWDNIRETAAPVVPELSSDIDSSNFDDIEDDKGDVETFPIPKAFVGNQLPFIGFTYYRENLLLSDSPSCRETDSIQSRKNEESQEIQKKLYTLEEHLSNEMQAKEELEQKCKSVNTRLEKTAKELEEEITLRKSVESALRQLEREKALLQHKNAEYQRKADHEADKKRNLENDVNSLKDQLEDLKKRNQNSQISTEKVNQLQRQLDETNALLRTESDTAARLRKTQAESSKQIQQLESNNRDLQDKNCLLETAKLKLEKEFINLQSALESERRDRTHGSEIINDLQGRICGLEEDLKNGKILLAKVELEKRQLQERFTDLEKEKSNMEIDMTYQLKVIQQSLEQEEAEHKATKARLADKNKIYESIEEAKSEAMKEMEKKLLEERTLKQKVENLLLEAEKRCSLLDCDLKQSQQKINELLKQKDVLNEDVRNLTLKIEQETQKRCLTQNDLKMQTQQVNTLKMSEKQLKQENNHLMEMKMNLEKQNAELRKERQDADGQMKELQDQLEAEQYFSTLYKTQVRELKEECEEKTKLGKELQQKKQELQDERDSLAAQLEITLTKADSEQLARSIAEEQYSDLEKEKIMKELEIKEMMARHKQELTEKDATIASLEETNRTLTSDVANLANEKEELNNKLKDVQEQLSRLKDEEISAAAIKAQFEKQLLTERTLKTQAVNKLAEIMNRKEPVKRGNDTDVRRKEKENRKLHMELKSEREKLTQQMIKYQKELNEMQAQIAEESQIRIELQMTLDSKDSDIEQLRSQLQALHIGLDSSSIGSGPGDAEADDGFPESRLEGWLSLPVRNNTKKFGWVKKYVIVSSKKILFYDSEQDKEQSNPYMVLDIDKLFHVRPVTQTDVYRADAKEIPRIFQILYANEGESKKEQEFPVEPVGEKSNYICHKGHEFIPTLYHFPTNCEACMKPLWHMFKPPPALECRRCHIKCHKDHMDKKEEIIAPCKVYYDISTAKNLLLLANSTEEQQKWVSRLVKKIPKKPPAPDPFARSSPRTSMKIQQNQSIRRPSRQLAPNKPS

## Brc1ccc2[nH]cc(-c3nc4c5ccccc5c5ccccc5c4[nH]3)c2c1 [Compound 45]
[1]; 25 μM compound
  viability at 25 µM: 88.9%
[1]; 100 μM compound
  viability at 100 µM: 35%
Leukemia cell lines; Homo sapiens, leukemia cell lines (FIG. 10B)
  GI50: 3.4 µM
Leukemia cell lines; leukemia cell lines, 100 μM the highest concentration used (FIG. 10C)
  TGI (total growth inhibition): > 100 µM
ASK1
  activity at 10 µM: 99%
CDK2/cyclinE
  activity at 10 µM: 117%
CDK6/cyclinD3
  activity at 10 µM: 87%
FGFR3
  activity at 10 µM: 82%
Fyn
  activity at 10 µM: 103%
GSK3α
  activity at 10 µM: 96%
IKKβ
  activity at 10 µM: 111%
MKK4
  activity at 10 µM: 96%
PI3K-β
  activity at 10 µM: 11%
PKBα
  activity at 10 µM: 95%
PKD2
  activity at 10 µM: 52%
RAF
  activity at 10 µM: 100%
Ret
  activity at 10 µM: 82%
ROCK-II
  activity at 10 µM: 86%
Rsk1
  activity at 10 µM: 183%
TAK1
  activity at 10 µM: 104%
Tie2
  activity at 10 µM: 109%
TrkA
  activity at 10 µM: 56%
